Data: patent publication US7553505B2, “Health care product containing isoflavone aglycones and method of producing the same” (The Hong Kong University of Science and Technology, priority 2006, dated 2009)

How the values were obtained:
[1] = Mitchell et al., 1998; Setchell et al., 2003; cited from earlier work
[2] = Solubility in alcohol against temperature (FIG. 2); assay type: physicochemical; conditions: within the specific temperature range of FIG. 2
Source text: FIG. 2 is a diagram showing the solubilities of genistein and daidzein in methanol against temperature.
The first step of the method as described above is extraction. This process of grinding starting materials disrupts their tissue structure to enable the isoflavone fractions more easily extracted by the organic solvent. Then, an organic solvent, preferably ethanol, is used to recover isoflavones based on the high solubilities and steadiness of isoflavones in the selected solvents. […] Ethanol (edible alcohol) is preferred in this invention to ensure the isoflavone product will not endanger human health even with the remains of solvent. The extraction is carried out at a temperature ranging from 40 to 90° C. for 2-24 hrs, with the material ratio (volume:weight) of solvent to flour between 1:1 and 10:1 (mL:g).

Compound: O=c1c(-c2ccc(O)cc2)coc2cc(O)cc(O)c12 [genistein, Genistein]
- biological activities among the twelve soy isoflavones [1]: highest biological activities
- solubility in alcohol including methanol and ethanol versus temperature [2]: increase evidently with increasing temperature
